The subject of experiment [1] is malonic dialdehyde (MDA) production in living human skin explants. Briefly: Ex-vivo study on living human skin explants: MDA investigation of the culture medium (TBAR, spectrofluorimetry). The class given is cell-based. As to conditions: for MDA concentration in the culture medium of the explant treated with substance and the irritant (average) / MDA concentration in the culture medium of the explant treated without irritant, but with substance (average): 0.5% solution in ethanol (gel D as such), day 4; for MDA concentration in the culture medium of the explant treated with substance and the irritant (average): 2 mg/cm^2 once daily D0-D3, irritant (metals/heavy metals + 0.1% diesel particles PM2.5) 24 h, irritant only 143.6, untreated 98.3; for Average MDA concentration in the presence of substance attributable to the irritant alone: difference with irritant minus without irritant, irritant alone without substance 45.3; for Lower MDA production (change) versus irritant only: explants with substance and irritant, compared with explant treated only with irritant; for MDA concentration in the culture medium of the explant treated without irritant, but with substance (average): no irritant, once daily D0-D3, untreated 98.3; for Hindrance of MDA production standardised to the amount of MDA released only by the irritant: standardised to MDA attributable to irritant alone (45.3 nmol/l). On the procedure:
(§1) An ex-vivo study was carried out on skin explants from a person […] (P1922-AB54). The explants are kept in a functioning state in a BEM culture medium (explants medium from BIO-EC) at 37° C. in a moist atmosphere containing 5% of CO2. 4 explants are used in each case in an experimental series of a substance, the control or the reference.
(§2) Compounds A and B to be investigated are employed in 0.5% solution in ethanol. The influence of ethanol on the explant is investigated in parallel (compound C=ethanol). The reference employed is the gel from DECLÉOR with the article number 56300 (gel D; decléor gelée hydratante anti-pollution), which is known for its protection of the skin against chemicals, heavy metals and diesel particles. The control used is an untreated sample which only comes into contact with the culture medium.
(§3) The explants are treated once daily for 4 days (day 0=D0, day 1=D1, day 2=D2 and day 3=D3) with the solutions to be tested containing compound A and B as well as compound C and gel D (2 μl per explant corresponding to 2 mg/cm^2). On D3, the solutions to be tested and the reference are treated 4 hours before application of the irritant.
(§4) On D3, the explants are treated with the irritant containing the metals/heavy metals and diesel particles, as described above, where a paper disc with a diameter of 9 mm is soaked with 30 μl of the irritant. The irritant acts on the respective explant for 24 hours.
The culture medium of the treated explants is investigated for the compound MDA. MDA stands for malonic dialdehyde (propanedial) and is a known marker for oxidative stress, as described above.
The culture medium of each investigated explant is mixed with a salt medium (HBBS Medium Hank's Balanced Salts) and a TBAR solution and heated in a water bath at 80° C. for 15 minutes. The TBAR solution contains thiobarbituric acid, hydrochloric acid and trichloroacetic acid. Many substances which are unrelated to the lipoperoxidation react with the thiobarbituric acid, for example glucose. After cooling, malonic dialdehyde (MDA) is extracted with butanol in a liquid/liquid extraction, and the then investigated by spectrofluorimetry (excitation 515 nm, emission: 550 nm). The MDA concentration indicated below is quoted in nmol/l.
1. For interpretation of the results, it is taken into account that the culture medium of the untreated explants (without irritant and without compounds A, B, C and gel D) also contains MDA on day 4.
For analysis of the results, this amount of MDA present on average in the untreated explants is therefore subtracted from the values obtained for the explant samples in order to determine the influence of MDA production owing to the irritant.

For experiment [2], the system named is epidermis of living human skin explants. As to the kind of experiment: Ex-vivo study on living human skin explants: histological investigation (Masson's trichrome staining). The class given is cell-based. As to conditions: for Epidermal morphological change compared with the untreated sample: explants treated with substance and the irritant, day 4, Masson staining. The method, then:
as §1, §2, §3, §4
On day 4 (D4), three explants are collected for each of the compounds to be investigated. Each explant is divided, and one part is frozen at −80° C., the second half is fixed in a buffered formol solution (formaldehyde solution). The fourth explant remains frozen at −80° C.
The explants fixed for 24 hours are dehydrogenated and impregnated in paraffin. Areas with a thickness of 5 μm are then cut and investigated under the microscope (for example Leica DMLB or Olympus BX43). Corresponding images are produced, using the Masson staining method (Masson's trichrome staining, Goldner variant), a standard colouring method in histology. […]

Experiment [3] concerns interleukin 8. Particulars: skin irritated by phorbol 12-myristate 13-acetate (PMA); cited from earlier work.

Each structure is given as a SMILES string.

As to `CCCCC(CC)COC(=O)C(=Cc1cc(OC)c(O)c(OC)c1)C(=O)OCC(CC)CCCC` (centres unmarked) [compound A, di(2-ethylhexyl) 3,5-dimethoxy-4-hydroxybenzylidenemalonate], in experiment [1], the “MDA concentration in the culture medium of the explant treated with substance and the irritant (average)” value stood at 129.0 nmol/L; the “Average MDA concentration in the presence of substance attributable to the irritant alone” value came out at 34.3 nmol/L; the “Lower MDA production (change) versus irritant only” value is given as 10%; the “MDA concentration in the culture medium of the explant treated without irritant, but with substance (average)” value stood at 94.7 nmol/L. Also, the “Hindrance of MDA production standardised to the amount of MDA released only by the irritant” value in experiment [1] came out at 24%. Besides, the “Epidermal morphological change compared with the untreated sample” value in experiment [2] was “no epidermal change”.
On to `COc1cc(C=C(C(=O)OC(C)C)C(=O)OC(C)C)ccc1O` [compound B, diisopropyl 3-methoxy-4-hydroxybenzylidenemalonate], for which the “Excretion of cytokines, in particular interleukin 8” value in experiment [3] is reported as “reduces the excretion of cytokines”. Moreover, in experiment [1], the “MDA concentration in the culture medium of the explant treated with substance and the irritant (average)” value is 135.5 nmol/L; the “Average MDA concentration in the presence of substance attributable to the irritant alone” value came to 41.9 nmol/L; the “Lower MDA production (change) versus irritant only” value was 6%; the “MDA concentration in the culture medium of the explant treated without irritant, but with substance (average)” value stood at 93.6 nmol/L. In addition, in experiment [1], the “Hindrance of MDA production standardised to the amount of MDA released only by the irritant” value was 8%. Further, the “Epidermal morphological change compared with the untreated sample” value in experiment [2] was “an epidermal morphological change”. Moreover, in experiment [2] (explants with substance and irritant, compared with untreated control and with compound A plus irritant), the “Worsening of the condition of the epidermis (score of detectable changes)” value was “about 55%”.

Source of the values: patent publication US20210161783A1, “USE OF SPECIFIC BENZYLIDENE MALONATES FOR PROTECTING THE SKIN FROM CHEMICALLY INDUCED STRESS” (MERCK PATENT GMBH, priority 2018, published 2021).
